Test results from patent US9637451B2, “Indole compound” (ASTELLAS PHARMA INC., priority 2014, dated 2017).

Experiments:
[1] = Brain-to-plasma concentration ratio in rat after intravenous administration; assay type: in vivo; conditions: brain and plasma, 15 minutes after intravenous administration
Experimental: At 15 minutes after intravenously administration of the test compound to the rats, the plasma and brain were collected. A 50% acetonitrile solution and an acetonitrile including internal standard material were added to the collected plasma. The collected brain was added to a 2-fold volume of PBS and homogenized. A 50% acetonitrile solution and an acetonitrile including internal standard material were added to the brain homogenate. The sample was centrifuged at 4° C. and 2150×g for 10 minutes, the supernatant was measured by LC-MS/MS, and the total concentration of the test compound in the brain (Cbrain) and the total concentration of the test compound in the plasma (Cplasma,t) were obtained. The brain-to-plasma concentrations ratio (Kp,brain) was calculated by the following equation.
(§1) The Kp,uu,CSF values and the Kp,brain values of ramelteon and some Example compounds of the present invention are shown in Table 4. Ex represents Example No. of the test compound. Unless otherwise specified, the Kp,uu,CSF was calculated using the fp values determined by an ultracentrifugation method. Further, N.T. represents Not Tested.

human MT2 receptor = target: T1, human MT2 receptor (Homo sapiens, UniProt P49286); test: Activation of human MT2 receptor in receptor-expressing cells, intracellular Ca2+ by FLIPR; assay type: cell-based; conditions: for EC50: HEK293 cells stably expressing human MT2 and Gq/i chimeric G protein, Ca2+ FLIPR; for Emax: maximum reaction by ramelteon taken as 100%
T1 construct: expressed in transfected cells
T1 sequence (P49286 1-362): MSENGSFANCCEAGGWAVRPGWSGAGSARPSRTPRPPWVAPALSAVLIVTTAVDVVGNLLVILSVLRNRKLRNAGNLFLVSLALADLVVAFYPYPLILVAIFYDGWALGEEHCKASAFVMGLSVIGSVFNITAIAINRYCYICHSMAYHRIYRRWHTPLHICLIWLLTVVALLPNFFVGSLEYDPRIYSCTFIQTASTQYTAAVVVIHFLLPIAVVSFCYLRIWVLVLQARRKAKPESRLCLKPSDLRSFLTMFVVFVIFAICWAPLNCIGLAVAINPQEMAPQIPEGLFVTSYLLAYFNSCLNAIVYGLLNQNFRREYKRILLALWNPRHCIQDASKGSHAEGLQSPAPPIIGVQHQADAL

human MT1 receptor = target: T2, human MT1 receptor (Homo sapiens, UniProt P48039); test: Activation of human MT1 receptor in receptor-expressing cells, intracellular Ca2+ by FLIPR; assay type: cell-based; conditions: for EC50: HEK293EBNA1 cells stably expressing human MT1 and Gq/i chimeric G protein, Ca2+ FLIPR; for Emax: maximum reaction by ramelteon taken as 100%
T2 construct: expressed in transfected cells

[2] = CSF-to-plasma unbound concentration ratio in rat after intravenous administration; assay type: in vivo; conditions: CSF and plasma (unbound), iv, 15 minutes after intravenous administration, fp by ultracentrifugation method
Experimental: A test compound (100 μg/mL, 50% acetonitrile solution) at 1% (v/v) with respect to the amount of the plasma was added to rat plasma, and dispensed to a sample for a supernatant and a sample for the plasma. The sample for a supernatant was ultracentrifuged at 436,000×g and 37° C. for 140 minutes, and the sample for the plasma was incubated at 37° C. for 140 minutes.
After 140 minutes, the sample for a supernatant after the ultracentrifugation and the sample for the plasma were taken, and mixed with the blank plasma or the blank supernatant, respectively. Acetonitrile including an internal standard material was added to each of the samples with the removal of protein, and after the centrifugation at 2150×g and 4° C. for 10 minutes the supernatant was injected into LC-MS/MS.
The unbound fraction in the plasma was calculated by the following equation.
To the plasma of a rat was added a test compound (0.2 mM, 50% acetonitrile solution) in an amount corresponding to 1% (v/v) of the plasma amount, and 200 μL of obtained plasma sample was filled into a plasma chamber of a RED device insert. A buffer chamber was filled with 350 μL of PBS, followed by performing equilibrium dialysis by stirring in a CO2 incubator at 37° C. for 16 hours. The sample after the completion of the equilibrium dialysis was recovered and the volume of the plasma sample was measured. To the plasma sample after the completion of the equilibrium dialysis were added PBS, a 20 mM ammonium formate buffer, and acetonitrile including an internal standard material. Similarly, to the PBS sample after the completion of the equilibrium dialysis was added a blank plasma, a 20 mM ammonium formate buffer, and acetonitrile including an internal standard material. This sample was left to stand at 4° C. for 30 minutes and then centrifuged 1500×g for 10 minutes, and the supernatant was measured by LC-MS/MS. The unbound fraction in the plasma was calculated by the following equation. fp=Cf/{(Cp−Cf)(V/V0)+Cf}
At 15 minutes after intravenously administration of the test compound to the rats, the plasma and CSF were collected. A 50% acetonitrile solution and an acetonitrile including internal standard material were added to the collected plasma or CSF. After centrifuging this sample at 4° C. and 2150×g for 10 minutes, the supernatant was measured by LC-MS/MS, and the total concentration of the test compound in the plasma (Cplasma,t) and the concentration of the test compound in CSF (CCSF) were obtained. The unbound concentration in the plasma (Cplasma,u) of the test compound and the CSF-to-plasma unbound concentration ratio (Kp,uu,CSF) of the test compound was calculated by the following equation.
as §1
(Ramelteon represents the values of Kp,uu,CSF after 10 minutes after the intravenous administration. Further, the Kp,uu,CSF of Examples 37 and 38 was calculated using the fp values determined by an equilibrium dialysis method. In addition, N.D. denotes the concentration of the test compound in CSF that is no higher than the detection limit.)

T2 sequence (P48039 whole entry): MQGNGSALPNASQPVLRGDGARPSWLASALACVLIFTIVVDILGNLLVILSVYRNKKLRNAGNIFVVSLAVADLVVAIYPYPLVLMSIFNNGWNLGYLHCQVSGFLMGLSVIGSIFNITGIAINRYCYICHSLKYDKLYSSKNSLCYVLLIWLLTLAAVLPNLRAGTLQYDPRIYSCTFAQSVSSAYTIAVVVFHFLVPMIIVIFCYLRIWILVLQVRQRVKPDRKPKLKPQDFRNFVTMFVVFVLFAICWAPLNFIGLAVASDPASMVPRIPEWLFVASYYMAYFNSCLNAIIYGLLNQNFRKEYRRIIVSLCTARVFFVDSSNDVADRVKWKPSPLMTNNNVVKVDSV

SMILES | Kp at 0.25 h [1] | EC50 (human MT2 receptor) [nM] | Emax (human MT2 receptor) [%] | EC50 (human MT1 receptor) [nM] | Emax (human MT1 receptor) [%] | Kp uu at 0.25 h [2]
CNC(=O)NCCc1c(C)[nH]c2ccc(OCCOc3ccnc(C)c3)cc12 [Example 9, 1-methyl-3-[2-(2-methyl-5-{2-[(2-methylpyridin-4-yl)oxy]ethoxy}-1H-indol-3-yl)ethyl]urea] | 0.01 | 32 | 116 | 9.9 | 84 | –
CNC(=O)NCCc1c(C)[nH]c2ccc(OCCOc3ccc(OC)nc3)cc12 [Example 31, 1-[2-(5-{2-[(6-methoxypyridin-3-yl)oxy]ethoxy}-2-methyl-1H-indol-3-yl)ethyl]-3-methylurea] | – | 28 | 88 | 1.4 | 104 | 0.01
CCCC(=O)NCCc1c[nH]c2ccc(OCCOc3ccn(C)n3)cc12 [Example 41] | – | 26 | 93 | 11 | 75 | –
CNC(=O)NCCc1c(C)[nH]c2ccc(OCCOc3cnc(OC)c(F)c3)cc12 [Example 48] | – | 56 | 106 | 8.4 | 92 | –
CC(=O)NCCc1c[nH]c2ccc(OCCOc3cncc(Br)c3)cc12 [Example 49] | – | 11 | 119 | 5.6 | 102 | –
CNC(=O)NCCc1c[nH]c2ccc(OCCOc3cncc(Br)c3)cc12 [Example 50] | – | 6.4 | 111 | 8.5 | 89 | –
CNC(=O)NCCc1c[nH]c2ccc(OCCOc3ccnc(Cl)c3)cc12 [Example 52] | – | 5.6 | 117 | 10 | 92 | –
CNC(=O)NCCc1c[nH]c2ccc(OCCOc3cccc(OC)n3)cc12 [Example 53] | – | 4.8 | 99 | 1 | 112 | –
COc1cccc(OCCOc2ccc3[nH]cc(CCNC(C)=O)c3c2)n1 [Example 54] | – | 2.6 | 109 | 0.77 | 111 | –
CNC(=O)NCCc1c[nH]c2ccc(OCCOc3cncc(Cl)c3)cc12 [Example 56] | – | 9.9 | 125 | 15 | 92 | –
CNC(=O)NCCc1c[nH]c2ccc(OCCOc3cccc(C)n3)cc12 [Example 58] | – | 3.4 | 99 | 1.2 | 99 | –
CC(=O)NCCc1c[nH]c2ccc(OCCOc3cccc(C4CC4)n3)cc12 [Example 60] | – | 9.2 | 104 | 7.2 | 94 | –
CCCc1cccc(OCCOc2ccc3[nH]cc(CCNC(C)=O)c3c2)n1 [Example 61] | – | 5.4 | 92 | 6.9 | 84 | –
CC(=O)NCCc1c[nH]c2ccc(OCCOc3nccc(C(F)(F)F)n3)cc12 [Example 62] | – | 16 | 118 | 11 | 101 | –
CC(=O)NCCc1c[nH]c2ccc(OCCOc3ccon3)cc12 [Example 63] | – | 9 | 105 | 9.7 | 90 | –
CC(=O)NCCc1c[nH]c2ccc(OCCOc3ccccn3)cc12 [Example 64] | – | 2.1 | 116 | 1.6 | 102 | –

Continued, values first:

Kp at 0.25 h [1] | EC50 (human MT2 receptor) [nM] | Emax (human MT2 receptor) [%] | EC50 (human MT1 receptor) [nM] | Emax (human MT1 receptor) [%] | Kp uu at 0.25 h [2] | SMILES
– | 2.4 | 99 | 0.71 | 107 | 0.05 | CC(=O)NCCc1c[nH]c2ccc(OCCOc3cccc(C)n3)cc12 [Example 11, N-[2-(5-{2-[(6-methylpyridin-2-yl)oxy]ethoxy}-1H-indol-3-yl)ethyl]acetamide]
– | 7 | 110 | 4.3 | 105 | 0.03 | CC(=O)NCCc1c(C)[nH]c2cc(F)c(OCCOc3ccn(C)n3)cc12 [Example 13, N-[2-(6-fluoro-2-methyl-5-{2-[(1-methyl-1H-pyrazol-3-yl)oxy]ethoxy}-1H-indol-3-yl)ethyl]acetamide]
– | 12 | 110 | 8.4 | 106 | 0.04 | CCC(=O)NCCc1c(C)[nH]c2ccc(OCCn3ccc(C)n3)cc12 [Example 15, N-(2-{2-methyl-5-[2-(3-methyl-1H-pyrazol-1-yl)ethoxy]-1H-indol-3-yl}ethyl)propanamide]
– | 51 | 49 | 7.2 | 104 | – | CC(=O)NC[C@H](C)c1c[nH]c2cc(F)c(OCCn3ccc(C)n3)cc12 [Example 39]
– | 160 | 42 | 6.3 | 81 | – | COc1ccc(OCCOc2cc3c([C@@H](C)CNC(C)=O)c[nH]c3cc2F)cn1 [Example 40]
– | 12 | 103 | 7.9 | 97 | – | Cn1ccc(OCCOc2ccc3[nH]cc(CCNC(=O)C(F)F)c3c2)n1 [Example 42]
– | 7.1 | 104 | 5.3 | 110 | – | CCC(=O)NCCc1c[nH]c2cc(F)c(OCCOc3ccn(C)n3)cc12 [Example 43]
– | 4.5 | 102 | 3.3 | 103 | – | Cn1ccc(OCCOc2cc3c(CCNC(=O)C(F)F)c[nH]c3cc2F)n1 [Example 44]
– | 14 | 127 | 2.3 | 99 | – | CCC(=O)NCCc1c(C)[nH]c2cc(F)c(OCCOc3ccn(C)n3)cc12 [Example 45]
– | 6.3 | 76 | 3.4 | 78 | – | CCC(=O)NCCc1c[nH]c2cc(F)c(OCCOc3ccc(OC)nc3)cc12 [Example 46]
– | 41 | 145 | 9.8 | 124 | – | CNC(=O)NCCc1c(C)[nH]c2cc(F)c(OCCOc3ccn(C)n3)cc12 [Example 47]
– | 4.7 | 108 | 5.3 | 95 | – | CC(=O)NCCc1c[nH]c2ccc(OCCOc3ccnc(Cl)c3)cc12 [Example 51]
– | 9.1 | 133 | 8 | 109 | – | CC(=O)NCCc1c[nH]c2ccc(OCCOc3cncc(Cl)c3)cc12 [Example 55]
– | 13 | 114 | 12 | 94 | – | CC(=O)NCCc1c[nH]c2ccc(OCCOc3cncc(F)c3)cc12 [Example 57]
– | 9.6 | 99 | 6.6 | 120 | – | CC(=O)NCCc1c[nH]c2ccc(OCCOc3ccnc(C)c3)cc12 [Example 59]
